Results as given in patent US20180148418A1, “AMIDO-SUBSTITUTED CYCLOHEXANE DERIVATIVES” (Bayer Pharma Aktiengesellschaft, priority 2015, published 2018).

How the values were obtained:
TNKS2 = target: T1, TNKS2 (Homo sapiens, UniProt Q9H2K2); test: TNKS2 Assay B (auto-parsylation, [3H]-NAD+ SPA); assay type: biochemical; details: 6 nM TNKS2, auto-parsylation, over night at room temperature
T1 construct: purchased BPS Bioscience, San Diego, USA 80572 (TNKS2 Histone Ribosylation Assay Kit)
T1 sequence (Q9H2K2 1-1166): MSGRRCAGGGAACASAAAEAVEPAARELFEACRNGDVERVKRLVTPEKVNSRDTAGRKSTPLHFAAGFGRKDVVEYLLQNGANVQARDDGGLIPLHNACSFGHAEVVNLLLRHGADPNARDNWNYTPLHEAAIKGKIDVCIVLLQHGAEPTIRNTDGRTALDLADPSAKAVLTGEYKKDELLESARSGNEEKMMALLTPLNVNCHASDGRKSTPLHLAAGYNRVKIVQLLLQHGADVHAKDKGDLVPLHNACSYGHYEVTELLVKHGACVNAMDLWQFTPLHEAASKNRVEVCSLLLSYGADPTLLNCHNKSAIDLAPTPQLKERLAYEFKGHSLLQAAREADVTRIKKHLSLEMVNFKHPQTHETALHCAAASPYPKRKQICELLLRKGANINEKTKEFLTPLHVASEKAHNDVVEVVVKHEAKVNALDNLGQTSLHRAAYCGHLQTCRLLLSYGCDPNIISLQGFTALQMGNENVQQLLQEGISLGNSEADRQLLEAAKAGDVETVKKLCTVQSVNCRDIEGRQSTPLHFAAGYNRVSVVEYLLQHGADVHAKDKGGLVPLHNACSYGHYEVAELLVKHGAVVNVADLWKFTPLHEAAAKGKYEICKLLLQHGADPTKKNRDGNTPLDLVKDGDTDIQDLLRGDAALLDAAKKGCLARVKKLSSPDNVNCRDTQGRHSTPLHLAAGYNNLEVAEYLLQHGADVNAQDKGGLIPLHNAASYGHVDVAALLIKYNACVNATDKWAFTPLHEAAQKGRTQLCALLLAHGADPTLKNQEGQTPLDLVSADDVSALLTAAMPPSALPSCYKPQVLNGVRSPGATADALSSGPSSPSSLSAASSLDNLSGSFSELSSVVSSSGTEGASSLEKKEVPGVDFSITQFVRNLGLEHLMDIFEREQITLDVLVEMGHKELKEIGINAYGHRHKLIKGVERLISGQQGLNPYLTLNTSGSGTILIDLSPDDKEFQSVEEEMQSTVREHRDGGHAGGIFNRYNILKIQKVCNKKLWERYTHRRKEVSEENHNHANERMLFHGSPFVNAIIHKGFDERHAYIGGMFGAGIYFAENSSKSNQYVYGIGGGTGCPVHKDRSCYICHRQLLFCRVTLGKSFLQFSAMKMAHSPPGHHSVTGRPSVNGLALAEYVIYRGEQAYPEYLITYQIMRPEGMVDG

[1] = tested on: wildtype Wnt signaling cascade; test: HEK293 TOP assay (Super TopFlash luciferase reporter, Wnt-3a stimulated); assay type: cell-based; details: Homo sapiens, HEK293, 16 h, HEK293 TOP reporter cells, Wnt3a at EC50, 16 hours
Method in brief: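 HEK293 cells stably carrying Super TopFlash (TOP) run in parallel with FOP cells, 10000/well plated 24 h ahead, stimulated with recombinant human Wnt-3a. Compounds tested 50 μM to 15 nM in 3.16-fold steps in CAFTY buffer pH 7.4 with 2 mM Ca^2+ and 0.01% BSA; luciferase read-out.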

[2] = tested on: HEK293 cells cotransfected with the FOP control vector; test: HEK293 FOP assay (control reporter with non-functional TCF elements); assay type: cell-based; details: Homo sapiens, 16 hours
Method in brief: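 Stable HEK293 line carrying FOP control reporter (randomized non-functional TCF sites, with pcDNA3), Geneticin-selected, plated 24 h before assay. Stimulated with recombinant human Wnt-3a (2500-5 ng/ml) and compounds 50 μM–15 nM (3.16-fold steps) in CAFTY buffer pH 7.4 with 2 mM Ca2+, 0.01% BSA, run parallel to TOP line.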

IC50 (TNKS2)	IC50 [1]	SMILES	IC50 [2]
7 nM	0.08 nM	O=C(N[C@H]1CC[C@@]2(CCN(c3ccccc3Cl)C2=O)CC1)c1[nH]cnc1C(=O)N1CC(F)C1 [Example 262, N-[(trans)-2-(2-chlorophenyl)-1-oxo-2-azaspiro[4.5]dec-8-yl]-4-[(3-fluoroazetidin-1-yl)carbonyl]-1H-imidazole-5-carboxamide]	≥ 50 µM
14 nM	3.9 nM	Cc1cc(C)n2ncc(C(=O)N[C@H]3CC[C@@]4(CCCN(c5cc(F)c(F)cc5Cl)C4=O)CC3)c2n1 [Example 315, N-[(trans)-2-(2-chloro-4,5-difluorophenyl)-1-oxo-2-azaspiro[5.5]undec-9-yl]-5,7-dimethylpyrazolo[1,5-a]pyrimidine-3-carboxamide]	≥ 0.5 µM
29 nM	7 nM	O=C(N[C@H]1CC[C@@]2(CCCN(c3ccc(F)cc3Cl)C2=O)CC1)c1[nH]cnc1C(=O)N1CC(F)C1 [Example 327, N-[(trans)-2-(2-chloro-4-fluorophenyl)-1-oxo-2-azaspiro[5.5]undec-9-yl]-4-[(3-fluoroazetidin-1-yl)carbonyl]-1H-imidazole-5-carboxamide]	31 µM
19 nM	350 nM	O=C(N[C@H]1CC[C@@]2(CCN(c3ccc(F)cc3Cl)C2=O)CC1)c1c[nH]c2cccnc12 [Example 236, N-[(trans)-2-(2-chloro-4-fluorophenyl)-1-oxo-2-azaspiro[4.5]dec-8-yl]-1H-pyrrolo[3,2-b]pyridine-3-carboxamide]	≥ 50 µM
76 nM	6.5 nM	O=C(N[C@H]1CC[C@@]2(CCN(c3ccc(F)cc3Cl)C2=O)CC1)c1cnn2c(C(F)F)cc(C(F)F)nc12 [Example 331, N-[(trans)-2-(2-chloro-4-fluorophenyl)-1-oxo-2-azaspiro[4.5]dec-8-yl]-5,7-bis(difluoromethyl)pyrazolo[1,5-a]pyrimidine-3-carboxamide]	30 µM
570 nM	73 nM	Cc1cc(C)n2ncc(C(=O)N[C@H]3CC[C@@]4(CCN(c5ccccc5)C4=O)CC3)c2n1 [Example 239, 5,7-dimethyl-N-[(trans)-1-oxo-2-phenyl-2-azaspiro[4.5]dec-8-yl]pyrazolo[1,5-a]pyrimidine-3-carboxamide]	≥ 0.5 µM
180 nM	60 nM	O=C(N[C@H]1CC[C@@]2(CCCN(c3ccc(F)cc3Cl)C2=O)CC1)c1cnc2cccnn12 [Example 326, N-[(trans)-2-(2-chloro-4-fluorophenyl)-1-oxo-2-azaspiro[5.5]undec-9-yl]imidazo[1,2-b]pyridazine-3-carboxamide]	≥ 50 µM
44 nM	17 nM	COCCn1cc(C(=O)N[C@H]2CC[C@@]3(CCN(c4ccc(F)cc4Cl)C3=O)CC2)c2ncccc21 [Example 345, N-[(trans)-2-(2-chloro-4-fluorophenyl)-1-oxo-2-azaspiro[4.5]dec-8-yl]-1-(2-methoxyethyl)-1H-pyrrolo[3,2-b]pyridine-3-carboxamide]	8.2 µM
12 nM	1.4 nM	O=C(N[C@H]1CC[C@@]2(CCCN(c3cc(F)c(F)cc3Cl)C2=O)CC1)c1[nH]cnc1C(=O)N1CC(OC(F)F)C1 [Example 322, N-[(trans)-2-(2-chloro-4,5-difluorophenyl)-1-oxo-2-azaspiro[5.5]undec-9-yl]-4-{[3-(difluoromethoxy)azetidin-1-yl]carbonyl}-1H-imidazole-5-carboxamide]	21 µM
2.7 nM	0.68 nM	COC1CN(C(=O)c2nc[nH]c2C(=O)N[C@H]2CC[C@@]3(CCN(c4ccc(F)cc4Cl)C3=O)CC2)C1 [Example 188, N-[(trans)-2-(2-chloro-4-fluorophenyl)-1-oxo-2-azaspiro[4.5]dec-8-yl]-4-[(3-methoxyazetidin-1-yl)carbonyl]-1H-imidazole-5-carboxamide]	≥ 50 µM
8.7 nM	2 nM	CCNC(=O)c1nc[nH]c1C(=O)N[C@H]1CC[C@@]2(CCCN(c3cc(F)c(F)cc3Cl)C2=O)CC1 [Example 318, N^5-[(trans)-2-(2-chloro-4,5-difluorophenyl)-1-oxo-2-azaspiro[5.5]undec-9-yl]-N^4-ethyl-1H-imidazole-4,5-dicarboxamide]	≥ 0.5 µM

Continued, compound first:

SMILES	IC50 (TNKS2)	IC50 [1]	IC50 [2]
O=C(N[C@H]1CC[C@]2(CCN(c3ccc(F)cc3Cl)C2=O)CC1)c1c[nH]c2cccnc12 [Example 332, N-[(cis)-2-(2-chloro-4-fluorophenyl)-1-oxo-2-azaspiro[4.5]dec-8-yl]-1H-pyrrolo[3,2-b]pyridine-3-carboxamide]	4700 nM	570 nM	35 µM
O=C(N[C@H]1CC[C@@]2(CCN(c3cccs3)C2=O)CC1)c1cnn2cccnc12 [Example 361, N-[(trans)-1-oxo-2-(thiophen-2-yl)-2-azaspiro[4.5]dec-8-yl]pyrazolo[1,5-a]pyrimidine-3-carboxamide]	3900 nM	560 nM	≥ 50 µM
NC(=O)c1nc[nH]c1C(=O)N[C@H]1CC[C@@]2(CCN(c3ccccc3Cl)C2=O)CC1 [Example 261, N^5-[(trans)-2-(2-chlorophenyl)-1-oxo-2-azaspiro[4.5]dec-8-yl]-1H-imidazole-4,5-dicarboxamide]	17 nM	4.6 nM	≥ 50 µM
O=C(N[C@H]1CC[C@@]2(CCN(c3ccccc3)C2=O)CC1)c1cnc2cccnn12 [Example 240, N-[(trans)-1-oxo-2-phenyl-2-azaspiro[4.5]dec-8-yl]imidazo[1,2-b]pyridazine-3-carboxamide]	510 nM	29 nM	≥ 0.5 µM
Cc1ccnc2c(C(=O)N[C@H]3CC[C@]4(CCN(c5ccc(F)cc5Cl)C4=O)CC3)cnn12 [Example 336, N-[(cis)-2-(2-chloro-4-fluorophenyl)-1-oxo-2-azaspiro[4.5]dec-8-yl]-7-methylpyrazolo[1,5-a]pyrimidine-3-carboxamide]	870 nM	54 nM	≥ 50 µM
Cc1cc(C(F)F)n2ncc(C(=O)N[C@H]3CC[C@]4(CCN(c5ccc(F)cc5Cl)C4=O)CC3)c2n1 [Example 333, N-[(cis)-2-(2-chloro-4-fluorophenyl)-1-oxo-2-azaspiro[4.5]dec-8-yl]-7-(difluoromethyl)-5-methylpyrazolo[1,5-a]pyrimidine-3-carboxamide]	670 nM	55 nM	30 µM
CNC(=O)c1nc[nH]c1C(=O)N[C@H]1CC[C@H](C(=O)Nc2c(Cl)cc(F)cc2C#N)CC1 [Example 174, N^5-{trans-4-[(2-chloro-6-cyano-4-fluorophenyl)carbamoyl]cyclohexyl}-N^4-methyl-1H-imidazole-4,5-dicarboxamide]	240 nM	79 nM	≥ 50 µM
O=C(N[C@H]1CC[C@@]2(CCN(c3ccc(F)cc3Cl)C2=O)CC1)c1cnn2ccccc12 [Example 230, N-[(trans)-2-(2-chloro-4-fluorophenyl)-1-oxo-2-azaspiro[4.5]dec-8-yl]pyrazolo[1,5-a]pyridine-3-carboxamide]	280 nM	30 nM	≥ 0.5 µM
COCCc1cnc2c(C(=O)N[C@H]3CC[C@@]4(CCN(c5ccc(F)cc5Cl)C4=O)CC3)cnn2c1 [Example 237, N-[(trans)-2-(2-chloro-4-fluorophenyl)-1-oxo-2-azaspiro[4.5]dec-8-yl]-6-(2-methoxyethyl)pyrazolo[1,5-a]pyrimidine-3-carboxamide]	8.9 nM	0.14 nM	≥ 50 µM
